What is called IC50 is the concentration that inhibits the measured activity by half.

Here are results for 22 molecules from patent US10669289B2, “Boronic acid derivatives” (MERCK PATENT GMBH, priority 2014, dated 2020).

Molecules are shown by their SMILES.

Assay [1] concerns the target human immuno proteasome (LMP7) (Homo sapiens (Human), UniProt P28062). Description: Determination of LMP7 activity (fluorescence intensity assay, Suc-LLVY-AMC). Type of assay: biochemical. The method, then: Determination of LMP7 Activity:
Measurement of LMP7 inhibition is performed in 384 well format based on fluorescence intensity assay.
(§1) Purified human immuno proteasome (0.25 nM) and serial diluted compounds in DMSO (range of concentrations from 30 μM to 15 pM) or controls are incubated for 20 minutes or 120 minutes (long incubation) at 25° C. in assay buffer containing 50 mM Tris pH 7.4, 0.03% SDS, 1 mM EDTA and 1% DMSO. The reaction is initiated by the addition of the fluorogenic peptide substrate, Suc-LLVY-AMC (Bachem 1-1395), at a concentration of 40 μM. After 60 minutes of incubation at 37° C., fluorescence intensity is measured at λex=350 nm and λem=450 nm with a fluorescence reader (Perkin Elmer Envision reader or equivalent).
(§2) Unless indicated otherwise the results are obtained after incubation for 20 minutes.

In assay [2] the target is human constitutive proteasome (Beta5) (Homo sapiens (Human), UniProt P28074). The experiment in a line: Determination of Beta5 activity (fluorescence intensity assay, Suc-LLVY-AMC). The assay is classed as biochemical. How it is done: Determination of Beta5 Activity:
Measurement of Beta5 inhibition is performed in 384 well format based on fluorescence intensity assay.
as §1, with “constitutive” for “immuno”, “(1.25” for “(0.25”
as §2

[3] abbreviates: LMP7 versus Beta5, long incubation (120 min).
The mark [4] stands for this setting: LMP7 versus Beta5, incubation for 20 minutes.

Take `C=CC(=O)N(CC)CC(=O)N[C@@H](Cc1cccc2ccccc12)B(O)O` [Compound No. 79, [(1R)-1-[[2-[ethyl(prop-2-enoyl)amino]acetyl]amino]-2-(1-naphthyl)ethyl]boronic Acid]: the “Selectivity LMP7 vs Beta5” value in assay [1] (setting [3]) was “+++++ (Selectivity ≥ 150)”. The IC50 in assay [1] (long incubation (120 min)) is 50 to 500 nM; in assay [2] (long incubation (120 min)) it was over 5000 nM.
As for `C=CC(=O)N(CC)CC(=O)N[C@@H](Cc1ccc(Cl)cc1)B(O)O` [Compound No. 25, [(1R)-2-(4-chlorophenyl)-1-[[2-[ethyl(prop-2-enoyl)amino]acetyl]-amino]ethyl]boronic Acid], the “Selectivity LMP7 vs Beta5” value in assay [1] (setting [4]) is given as “+ (Selectivity < 50)”. In addition, the IC50 lay in the range of 50 to 500 nM in assay [1] (incubation for 20 minutes) and 500 to 5000 nM in assay [2] (incubation for 20 minutes).
Consider `C=CC(=O)N(C)[C@@H](C)C(=O)N[C@@H](Cc1ccc(C)cc1C)B(O)O` [Compound No. 49, [(1R)-2-(2,4-dimethylphenyl)-1-[[(2S)-2-[methyl(prop-2-enoyl)amino]propanoyl]amino]ethyl]boronic Acid], for which the “Selectivity LMP7 vs Beta5” value in assay [1] (setting [3]) was “++++ (100 ≤ Selectivity < 150)”. Moreover, the IC50 in assay [1] (long incubation (120 min)) was 50 to 500 nM; in assay [2] (long incubation (120 min)), over 5000 nM.
The matching figures for `CCN(CC(=O)N[C@@H](Cc1ccc(C)cc1C)B(O)O)C(=O)/C=C/C(=O)OC` [Compound No. 50, [(1R)-2-(2,4-dimethylphenyl)-1-[[2-[ethyl-[(E)-4-methoxy-4-oxo-but-2-enoyl]amino]acetyl]amino]ethyl]boronic Acid]: “+++++ (Selectivity ≥ 150)”, under 50 nM and over 5000 nM.
`C=CC(=O)N(CCC)CC(=O)N[C@@H](Cc1ccc(C)cc1C)B(O)O` [Compound No. 6, [(1R)-2-(2,4-dimethylphenyl)-1-[[2-[prop-2-enoyl(propyl)amino]-acetyl]amino]ethyl]boronic Acid]: the “Selectivity LMP7 vs Beta5” value in assay [1] (setting [4]) is listed as “+++++ (Selectivity ≥ 150)”. Also, the IC50 in assay [1] (incubation for 20 minutes) is 50 to 500 nM; in assay [2] (incubation for 20 minutes), over 5000 nM.
Consider `C=CC(=O)N(C)CC(=O)N[C@@H](Cc1ccc(C(F)(F)F)cc1C)B(O)O` [Compound No. 67, [(1R)-1-[[2-[methyl(prop-2-enoyl)amino]acetyl]amino]-2-[2-methyl-4-(trifluoromethyl)phenyl]ethyl]boronic Acid], for which the “Selectivity LMP7 vs Beta5” value in assay [1] (setting [3]) is “+++++ (Selectivity ≥ 150)”. The IC50 in assay [1] (long incubation (120 min)) is under 50 nM; in assay [2] (long incubation (120 min)), over 5000 nM.
Take `CC#CC(=O)N(CC)CC(=O)N[C@@H](Cc1ccc(C)cc1C)B(O)O` [Compound No. 19, [(1R)-1-[[2-[but-2-ynoyl(ethyl)amino]acetyl]amino]-2-(2,4-dimethylphenyl)ethyl]boronic Acid]: the “Selectivity LMP7 vs Beta5” value in assay [1] (setting [4]) is listed as “+++ (70 ≤ 100)”. Further, the IC50 in assay [1] (incubation for 20 minutes) was under 50 nM; in assay [2] (incubation for 20 minutes) it was 500 to 5000 nM.
For `C=CC(=O)N(CC(=O)N[C@@H](Cc1ccc(Cl)cc1)B(O)O)c1ccccc1F` [Compound No. 55, [(1R)-2-(4-chlorophenyl)-1-[[2-(2-fluoro-N-prop-2-enoyl-anilino)acetyl]amino]ethyl]boronic Acid], the “Selectivity LMP7 vs Beta5” value in assay [1] (setting [3]) is listed as “+++++ (Selectivity ≥ 150)”. The results for the IC50 in assay [1] (long incubation (120 min)) and in assay [2] (long incubation (120 min)) were under 50 nM and 500 to 5000 nM, respectively.
For `CCN(CC(=O)N[C@@H](Cc1ccc(C)cc1C)B(O)O)C(=O)/C=C/C(=O)N(C)C` [Compound No. 62, [(1R)-1-[[2-[[(E)-4-(dimethylamino)-4-oxo-but-2-enoyl]-ethyl-amino]acetyl]amino]-2-(2,4-dimethylphenyl)ethyl]boronic Acid], in that order: “+++++ (Selectivity ≥ 150)”, 50 to 500 nM and over 5000 nM.
The matching figures for `C=CC(=O)N(CC(=O)N[C@@H](Cc1ccsc1)B(O)O)c1ccc(C(=O)N(C)C)cc1` [Compound No. 103, [(1R)-1-[[2-[4-(dimethylcarbamoyl)-N-prop-2-enoyl-anilino]acetyl]amino]-2-(3-thienyl)ethyl]boronic Acid]: “+++++ (Selectivity ≥ 150)”, under 50 nM and 500 to 5000 nM.
As for `C=CC(=O)N(c1ccccc1)[C@@H](C)C(=O)N[C@@H](Cc1ccc(C)c(C)c1)B(O)O` [Compound No. 48, [(1R)-2-(3,4-dimethylphenyl)-1-[[(2S)-2-(N-prop-2-enoylanilino)propanoyl]amino]ethyl]boronic Acid], the “Selectivity LMP7 vs Beta5” value in assay [1] (setting [4]) is “++ (50 ≤ Selectivity < 70)”. Besides, the IC50 in assay [1] (incubation for 20 minutes) was 500 to 5000 nM; in assay [2] (incubation for 20 minutes), over 5000 nM.
Consider `C=CC(=O)N(CC)CC(=O)N[C@@H](Cc1ccc(F)cc1)B(O)O` [Compound No. 30, [(1R)-1-[[2-[ethyl(prop-2-enoyl)amino]acetyl]amino]-2-(4-fluorophenyl)ethyl]boronic Acid], for which the “Selectivity LMP7 vs Beta5” value in assay [1] (setting [4]) was “+++ (70 ≤ 100)”. Moreover, the figures for the 50% inhibitory concentration (IC50) in assay [1] (incubation for 20 minutes) and in assay [2] (incubation for 20 minutes) were 50 to 500 nM and over 5000 nM, respectively.
Consider `C=CC(=O)N(CC(=O)N[C@@H](Cc1ccsc1)B(O)O)c1cccc(C(=O)N(C)C)c1` [Compound No. 102, [(1R)-1-[[2-[3-(dimethylcarbamoyl)-N-prop-2-enoyl-anilino]acetyl]amino]-2-(3-thienyl)ethyl]boronic Acid], for which, in assay [1] (setting [3]), the “Selectivity LMP7 vs Beta5” value is “++ (50 ≤ Selectivity < 70)”. Also, the IC50 in assay [1] (long incubation (120 min)) is under 50 nM; in assay [2] (long incubation (120 min)), 500 to 5000 nM.
On to `C=CC(=O)N(CC(=O)N[C@@H](Cc1ccc(Cl)c(Cl)c1)B(O)O)C1CC1` [Compound No. 69, [(1R)-1-[[2-[cyclopropyl(prop-2-enoyl)amino]acetyl]amino]-2-(3,4-dichlorophenyl)ethyl]boronic Acid], for which the “Selectivity LMP7 vs Beta5” value in assay [1] (setting [3]) was “+++++ (Selectivity ≥ 150)”. Besides, in assay [2] (long incubation (120 min)), the IC50 fell in the range of 500 to 5000 nM.
Consider `C=CC(=O)N(c1ccccc1)[C@@H](C)C(=O)N[C@@H](Cc1ccc(C)cc1C)B(O)O` [Compound No. 46, [(1R)-2-(2,4-dimethylphenyl)-1-[[(2S)-2-(N-prop-2-enoylanilino)propanoyl]amino]ethyl]boronic Acid], for which, in assay [1] (setting [4]), the “Selectivity LMP7 vs Beta5” value was “++ (50 ≤ Selectivity < 70)”. Moreover, the IC50 in assay [1] (incubation for 20 minutes) was 500 to 5000 nM; in assay [2] (incubation for 20 minutes), over 5000 nM.
Take `C=CC(=O)N(c1ccccc1)[C@H](C)C(=O)N[C@@H](Cc1ccc(C)cc1C)B(O)O` [Compound No. 45, [(1R)-2-(2,4-dimethylphenyl)-1-[[(2R)-2-(N-prop-2-enoylanilino)propanoyl]amino]ethyl]boronic Acid]: the “Selectivity LMP7 vs Beta5” value in assay [1] (setting [3]) is listed as “+++++ (Selectivity ≥ 150)”. The IC50 in assay [1] (long incubation (120 min)) was 50 to 500 nM; in assay [2] (long incubation (120 min)) it was over 5000 nM.
For `C=CC(=O)N1CCCC[C@@H]1C(=O)N[C@@H](Cc1ccc(C)cc1C)B(O)O` [Compound No. 38, [(1R)-2-(2,4-dimethylphenyl)-1-[[(2R)-1-prop-2-enoylpiperidine-2-carbonyl]amino]ethyl]boronic Acid], in that order: “++++ (100 ≤ Selectivity < 150)”, 50 to 500 nM and over 5000 nM.
Turning to `C=CC(=O)N(CC(=O)N[C@@H](Cc1ccccc1)B(O)O)C(C)C` [Compound No. 35, [(1R)-1-[[2-[isopropyl(prop-2-enoyl)amino]acetyl]amino]-2-phenyl-ethyl]boronic Acid], the “Selectivity LMP7 vs Beta5” value in assay [1] (setting [4]) was “+ (Selectivity < 50)”. The IC50 is 50 to 500 nM in assay [1] (incubation for 20 minutes) and over 5000 nM in assay [2] (incubation for 20 minutes).
In the case of `C=CC(=O)N1CCC[C@@H]1C(=O)N[C@@H](Cc1ccc(C)cc1C)B(O)O` [Compound No. 53, [(1R)-2-(2,4-dimethylphenyl)-1-[[(2R)-1-prop-2-enoylpyrrolidine-2-carbonyl]amino]ethyl]boronic Acid], the “Selectivity LMP7 vs Beta5” value in assay [1] (setting [3]) is “++ (50 ≤ Selectivity < 70)”. Besides, the IC50 is 500 to 5000 nM in assay [1] (long incubation (120 min)) and over 5000 nM in assay [2] (long incubation (120 min)).
In the case of `C=CC(=O)N(CC)CC(=O)N[C@@H](Cc1ccc(C)cc1C)B(O)O` [Compound No. 34, [(1R)-2-(2,4-dimethylphenyl)-1-[[2-[ethyl(prop-2-enoyl)amino]acetyl]-amino]ethyl]boronic Acid], the “Selectivity LMP7 vs Beta5” value in assay [1] (setting [4]) was “++++ (100 ≤ Selectivity < 150)”. The IC50 was 50 to 500 nM in assay [1] (incubation for 20 minutes) and over 5000 nM in assay [2] (incubation for 20 minutes).
Consider `C=CC(=O)N(CC(=O)NC(Cc1ccsc1)B(O)O)c1ccccc1CC` (centres unmarked) [Compound No. 93, [1-[[2-(2-ethyl-N-prop-2-enoyl-anilino)acetyl]amino]-2-(3-thienyl)ethyl]boronic Acid], for which, in assay [1] (setting [3]), the “Selectivity LMP7 vs Beta5” value is “+++++ (Selectivity ≥ 150)”. Besides, the figures for the IC50 in assay [1] (long incubation (120 min)) and in assay [2] (long incubation (120 min)) were 50 to 500 nM and over 5000 nM, respectively.
For `C=CC(=O)N(CC(=O)N[C@@H](Cc1ccc(Cl)cc1Cl)B(O)O)CC(F)(F)F` [Compound No. 60, [(1R)-2-(2,4-dichlorophenyl)-1-[[2-[prop-2-enoyl(2,2,2-trifluoroethyl)amino]acetyl]amino]ethyl]boronic Acid], in that order: “+++++ (Selectivity ≥ 150)”, under 50 nM and over 5000 nM.
